Drawing on PubChem BioAssay AID488803 (Sanford-Burnham Center for Chemical Genomics, 2010), this text covers IC50 for 37 compounds.

SMILES strings stand for the structures. The source made the active and inactive calls.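 The calls were made as follows: active = mean IC50 below 10 µM; inactive = the rest.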 Where only a bound is given, the exact number is not on record here.

For the assay, the target named is Apelin receptor (Homo sapiens) (UniProt P35414). Kind of assay: apelin receptor inhibitor analogs – cell-based, luminescence, set 2, SAR follow-up (AID 488803). As to conditions: CHO-K1 APJ PathHunter beta-arrestin, antagonist.
Chain of Apelin receptor (Homo sapiens) (P35414 whole entry, looked up): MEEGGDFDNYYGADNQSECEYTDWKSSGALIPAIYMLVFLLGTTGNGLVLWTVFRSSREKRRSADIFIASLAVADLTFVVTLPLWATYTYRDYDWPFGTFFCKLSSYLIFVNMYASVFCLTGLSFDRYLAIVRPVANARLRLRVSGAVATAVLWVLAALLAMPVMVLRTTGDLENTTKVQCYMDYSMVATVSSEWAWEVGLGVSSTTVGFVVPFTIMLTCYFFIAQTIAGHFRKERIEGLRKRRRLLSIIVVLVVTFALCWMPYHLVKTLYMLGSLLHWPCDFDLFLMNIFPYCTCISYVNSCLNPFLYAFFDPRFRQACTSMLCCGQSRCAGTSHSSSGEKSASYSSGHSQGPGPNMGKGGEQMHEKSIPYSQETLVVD
As to `CCOc1ccc(C(=O)Oc2coc(CSc3ncccn3)cc2=O)cc1`, the IC50 (as a rule, the concentration that inhibits the measured activity by half) is > 79 µM (inactive).

Consider `COc1ccc(C(=O)Oc2coc(CSc3nccc(C)n3)cc2=O)cc1`, for which the IC50 is > 79 µM (inactive).

`CC1(C)CC2(CC(c3ccccc3Cl)c3ccc(O)cc3O2)NC(=O)N1` (configuration not stated): the IC50 is > 79 µM (inactive).

Regarding `O=C(Oc1coc(CSc2ncccn2)cc1=O)c1ccc(C(F)(F)F)cc1`, the IC50 entry was “inactive”.

For `O=C(Oc1coc(CSc2ncccn2)cc1=O)c1ccc(F)cc1`, the IC50 is > 79 µM (inactive).

As to `Cc1ccc(C(=O)Oc2coc(CSc3ncccn3)cc2=O)cc1`, the IC50 is > 79 µM (inactive).

Regarding `C=CCOc1cccc(CSc2ncccn2)c1`, the IC50 was > 79 µM (inactive).

Regarding `C=CCOc1ccc(CSc2nc(C)cc(C)n2)cc1Cl`, the IC50 is > 79 µM (inactive).

As for `COc1cccc(C(=O)Oc2coc(CSc3nccc(C)n3)cc2=O)c1`, the IC50 is > 79 µM (inactive).

As for `O=c1cc(CCl)occ1O`, the IC50 was > 79 µM (inactive).

In the case of `Cc1ccnc(SCc2cc(=O)c(OC(=O)c3cccs3)co2)n1`, the IC50 was > 79 µM (inactive).

As for `CC1(C)CC2(CC(c3ccccc3Cl)c3ccc(O)cc3O2)NC(=S)N1` (configuration not stated), the 50% inhibitory concentration (IC50) was 6.88 µM.

Turning to `CCN(CC)S(=O)(=O)c1ccc(C(=O)Oc2coc(CSc3ncccn3)cc2=O)cc1`, the IC50 was > 79 µM (inactive).

As to `Cc1ccnc(SCc2cc(=O)c(OC(=O)c3ccc(OC(F)(F)F)cc3)co2)n1`, the IC50 was > 79 µM (inactive).

With `Cc1cccc(C2CC3(CC(C)(C)NC(=S)N3)Oc3cc(O)c(Cl)cc32)c1` (configuration not stated), the IC50 entry is “inactive”.

As for `Cc1ccc(C(=O)Oc2coc(CSc3ncccn3)cc2=O)cc1C`, the IC50 is > 79 µM (inactive).

As to `Cc1ccnc(SCc2cc(=O)c(O)co2)n1`, the IC50 was > 79 µM (inactive).

For `Cc1ccccc1NCC(O)c1ccc(Cl)cc1` (configuration not stated), the IC50 was > 79 µM (inactive).

For the compound `CC(C)OC(=O)CN1C(=O)C(=O)c2ccccc21`, the IC50 was > 79 µM (inactive).

As for `Cc1ccnc(SCc2cc(=O)c(OC(=O)c3cc(Cl)ccc3[N+](=O)[O-])co2)n1`, the IC50 result is “inactive”.

Turning to `CCCCOc1ccc(C(=O)Oc2coc(CSc3ncccn3)cc2=O)cc1`, the IC50 is > 79 µM (inactive).

On to `Cc1cc(C)nc(SCc2cccc(O)c2)n1`, for which the IC50 was > 79 µM (inactive).

As for `Cc1ccnc(S(=O)(=O)Cc2cc(=O)c(OC(=O)c3ccc(Cl)c([N+](=O)[O-])c3)co2)n1`, the IC50 was 3.21 µM.

For the compound `O=c1cc(CSc2ncccn2)occ1O`, the IC50 is > 79 µM (inactive).

Turning to `Cc1ccc(C(=O)Oc2coc(CSc3nccc(C)n3)cc2=O)cc1`, the IC50 was > 79 µM (inactive).

For `Cc1cc(C)nc(SCc2cc(=O)c(O)co2)n1`, the IC50 was > 79 µM (inactive).

As for `Cc1cccc(C2CC3(CC(C)(C)NC(=S)N3)Oc3cc(O)cc(C)c32)c1` (configuration not stated), the IC50 result is “inactive”.

For `O=C(Oc1coc(CSc2ccccc2)cc1=O)c1ccc(Cl)c([N+](=O)[O-])c1`, the IC50 was 9.61 µM.

With `C=CCOc1ccc(CSc2nccc(C)n2)cc1`, the IC50 was > 79 µM (inactive).

As for `O=C(COC(=O)c1cccnc1)c1ccc(Cl)cc1`, the IC50 was > 79 µM (inactive).

In the case of `COc1ccccc1NCC(=O)c1ccc(Cl)cc1`, the IC50 was 1.7 µM.

Regarding `CSC1=NC2(CC(c3ccccc3)c3cc(Cl)c(O)cc3O2)CC(C)(C)N1` (configuration not stated), the IC50 was > 79 µM (inactive).

Consider `O=C(Oc1coc(CSc2ncccn2)cc1=O)c1cc([N+](=O)[O-])ccc1Cl`, for which the IC50 result is “inactive”.

For `O=C(Oc1coc(CSc2ncccn2)cc1=O)c1cc(Cl)ccc1[N+](=O)[O-]`, the IC50 is > 79 µM (inactive).

In the case of `Cc1c(C(=O)Oc2coc(CSc3ncccn3)cc2=O)cccc1[N+](=O)[O-]`, the IC50 entry is “inactive”.

With `Cc1cccc(C(=O)Oc2coc(CSc3nccc(C)n3)cc2=O)c1`, the IC50 was > 79 µM (inactive).

For the compound `C=CCOc1cccc(CSc2nc(C)cc(C)n2)c1`, the IC50 is > 79 µM (inactive).
